The numbers were not newly measured in US10463613B2, “Cromolyn compositions for treatment of chronic cough due to idiopathic pulmonary fibrosis” (Respivant Sciences GmbH, priority 2016, dated 2019), which cites them from elsewhere.

Like-named read-outs stand apart in the source and are kept apart here.

The conditions of the data set: in vivo.

On to `O=C([O-])c1cc(=O)c2c(OCC(O)COc3cccc4oc(C(=O)O)cc(=O)c34)cccc2o1.[Na+]` [cromolyn sodium, disodium 5,5′-(2-hydroxypropane-1,3-diyl)bis(oxy)bis(4-oxo-4H-chromene-2-carboxylate)], for which the “Bioavailability of available formulations” value is “approximately 1%” and the Oral bioavailability was roughly 1%. For the same compound, the Oral bioavailability entry (listed as cromolyn) is “about 1%”.
